From US4198508A, “Process for preparing 4-substituted imidazo[1,2-a]quinoxalines” (Westwood Pharmaceuticals Inc., priority 1977, dated 1980)

What was measured:
[1] = system: humeral or antibody response; assay: hemolysin test in mice; format: in vivo, mouse; settings: s.c., dose to reduce antibody activity by 50% versus control
[2] = system: Trichophyton mentagrophytes; assay: antifungal activity, agar dilution method; format: cell-based, Trichophyton mentagrophytes (ATCC No. 8757 and 9129)
Experimental: (§1) Various compounds of this invention display antifungal and anti-yeast activity.
(§2) In Table IX below are listed the antifungal activity of a number of compounds encompassed in the present invention. These were determined by the agar dilution method as described in Chapters 2 and 3 of Methods in Microbiology, Vol. 7B, edited by J. R. Norris and D. W. Ribbons, Academic Press, New York, 1972.

rat paw edema = rat paw edema assay, oral dosing; format: in vivo; settings: four hours after drug
Experimental: The anti-inflammatory activity of representative compounds of this invention was determined by the rat paw edema assay both by local administration (Table XI below) and by oral dosing (Table XII below). For the oral dosing, the procedure of C. A. Winter, E. A. Risley and G. W. Nuss, Proc. Soc. Exp. Biol. Med. 111, 544 (1962) was employed with measurement taken four hours after the drug was administered. The local administration tests were carried out similarly except the irritant (carrageenan) and the test compound were injected simultaneously at time zero. Tables XI and XII report the anti-inflammatory activity of the compounds tested as % difference in the edema or swelling as compared with the control. These Tables also give the response in many instances of more than one dose level of the same drug.

[3] = system: cell-mediated immune response to the antigen, Mycobacterium tuberculosis H37Ra; assay: delayed hypersensitivity test; format: in vivo, mouse; settings: mice, s.c.; dose to reduce edema of cell-mediated immune response by 60% versus control
Experimental: The immunosuppressant activities of the compounds of this invention were determined via the hemolysin test in mice and by the delayed hypersensitivity test. The hemolysin test used is that described in Methods in Immunology, edited by D. H. Campbell et al, W. A. Benjamin, New York 1963 pages 172-175, and measures humeral or antibody response. The delayed hypersensitivity test measures the effect of a test compound on the ability of a subject mouse to mount a cell-mediated immune response to the antigen, Mycobacterium tuberculosis H37Ra. The mouse is sensitized to the antigen by subcutaneous administration in the base of the tail. The development of the delayed hypersensitivity response may be measured at any time beginning six days after sensitization but is usually done on the ninth day as follows: The right hind paw is injected with purified protein derivative (tuberculin) while the left hind paw (control) receives physiological saline. Both paw volumes are measured after twenty-four hours and significant increase in the volume of the right hand paw is taken as a measure of an effective delayed hypersensitivity response. All compounds were administered by the subcutaneous route.
The D.H.S. (ED60) mg./kg. s.c. value appearing in column 3 is an expression of the effectiveness of the drug in reducing the edema that accompanies the cell-mediated immune response. […]

Trichophyton rubrum = assay: antifungal activity, agar dilution method; format: cell-based, Trichophyton rubrum (ATCC No. 10218 and 14001)
Experimental: as §1, §2

Trichophyton ajelloi = assay: antifungal activity, agar dilution method; format: cell-based
Experimental: as §1, §2

SMILES	HL(ED50) [1] [mg/kg]	Parts Per Million Inhibitions of T. mentagrophytes [2] [Parts Per Million]	%Difference from Control (rat paw edema; 100 mg/kg) [%]	%Difference from Control (rat paw edema; 400 mg/kg) [%]	D.H.S. (ED60) [3] [mg/kg]	Parts Per Million Inhibitions of T. rubrum (Trichophyton rubrum) [Parts Per Million]	Parts Per Million Inhibitions of T. ajelloi (Trichophyton ajelloi) [Parts Per Million]
FC(F)(F)c1cccc(-c2nc3ccccc3n3ccnc23)c1 [Compound 136]	2.7	100	-9	-25	> 50		
O=[N+]([O-])c1ccc(Nc2nc3ccccc3n3ccnc23)cc1 [Compound 189]						100	100
